Measurements from PMC9732821, “Neurotrophic Activity and Its Modulation by Zinc Ion of a Dimeric Peptide Mimicking the Brain-Derived Neurotrophic Factor N-Terminal Region” (ACS Chemical Neuroscience, 2022).

Test system: human neural progenitor cell line (RenVM)
Experiment: neuronal differentiation of Ren cells (β3-tubulin positive fraction)
Assay type: cell-based
Details: 1 μM d-bdnf, four days; BDNF 50 ng/mL comparator
Description: Figure 3 Neurite outgrowth stimulated by BDNF and its mimetic peptide ligands. (A) Top, left: schematic timeline of the experiment. SH-SY5Y cells were differentiated for 5 days (d1–5) by addition of retinoic acid (RA, gray bar) in the cell medium. Then, cells were stimulated for 3 days (d6–8) with 150 ng/mL BDNF or different concentrations of its peptide-mimetics (black bar) or left untreated (white bar). On the right and bottom, representative images of the differentiated cells at the end of each treatment. Scale bar 50 μm. (B) Scatter dot plot of the total neurite length, normalized to the number of cell bodies present in each analyzed field. […] For each field, an average of 50–200 cells were counted. […] (C) Representative fluorescence images of DIV3 Ren cells stained with DAPI (blue) and β3-tubulin (green) after differentiation with the standard medium (CTRL), or with the standard medium supplemented with 50 ng/mL BDNF or with 1 μM d-bdnf. […] (D) Column plot of the mean ± SD fraction of β3-tubulin (green) positive on the total cells, counted in the DAPI channel of the analyzed fields (nfields) (CTRL: nfields = 10 and total ncells = 4756; BDNF: nfields = 11 and total ncells = 4330; d-bdnf: nfields = 10 and total ncells = 5619 cells; ****p < 0.0001, *p < 0.05 according to the one-way ANOVA with Dunnett’s multiple comparison test). […]

HSDPARRGELSVC-C-VSLEGRRAPDSH (disulfide) [d-bdnf]
neuronal cell fraction (β3-tubulin positive): significant increase of detected neurons with respect to untreated cells, in a similar way to BDNF
